Where two headings read alike, the source gives them in different places.
Key:
[1] = Stability in EMEM cell culture medium at 37 °C (HPLC-UV); format: in vitro ADME; conditions: for stability in cell culture medium: EMEM, 37 °C, up to 72 h
Procedure: Stock solutions of compounds in DMSO were diluted to 10 µM in complemented EMEM (Lonza). Samples were incubated for 2, 6, 24, and 72 h at 37 °C. After the incubation, acetonitrile (VWR, cat. no.: 83639.320) was added to the solutions (1:1 ratio, to achieve 50% acetonitrile content). The samples were vortexed and centrifuged (13,000× g, 10 min). Supernatants were measured by HPLC-UV. HPLC method and chromatograms are available in the Supplementary Information. Stability was calculated using the external standard method. Decay curves were generated and half-life was calculated by GraphPad Prism 5.02 software.

[2] = tested on: EBC-1 NSCLC cells; assay: CellTiter-Glo cell viability assay on EBC-1 cells; format: cell-based; conditions: for IC50: CellTiter-Glo, 72 h treatment, read-out: IC50, viability inhibition on EBC-1 cells
Procedure: EBC-1 cell line was obtained from the Japanese Collection of Research Bioresources Cell Bank (JCRB, Solana Beach, CA 92075 USA) and cultured in Eagle’s minimum essential medium (EMEM) (Lonza, Basel, Switzerland, cat. no.: BE12-611F,) supplemented with 1% MycoZap (Lonza, cat. no.: VZA-2012) and 10% fetal bovine serum (FBS) (Thermo Fisher Scientific, Waltham, MA, USA, cat. no.: 10500-064).
(§1) Effects of the synthesized compounds on EBC-1 and fibroblast cell viability was measured via CellTiter-Glo® luminescent cell viability assay (Promega, Madison, WI, USA) according to the manufacturer’s instructions. Briefly, cells were plated at 1000 cells/well onto a flat-bottomed, white 96 well plate (BRANDplates, cat. no.: 781965). After 24 h, cells were treated for 72 h with either the desired 4-fold serial diluted compound concentrations or vehicle (0.2% DMSO) control. After the treatment, the luminescence signal was recorded using a microplate reader (BioTek Synergy 2 Multi-Mode Reader, BioTek, Winooski, VT, USA). Dose–response curves (using a non-linear regression model) were generated and IC50 values were determined using Graph Pad Prism 5.02 software (GraphPad Software, San Diego, CA, USA).

[3] = tested on: primary human skin fibroblast cells; assay: CellTiter-Glo cell viability assay on primary skin fibroblast cells; format: cell-based; conditions: GnRHR-negative cells, 72 h treatment, read-out: IC50, viability inhibition on primary human skin fibroblast cells
Procedure: Primary human skin fibroblast cells (fibroblast cells) were gifted by the Institute of Genomic Medicine and Rare Disorders, Semmelweis University (Budapest, Hungary). Fibroblast cells were cultured in Dulbecco’s modified Eagle’s medium (DMEM) (Thermo Fisher Scientific, cat. no.: 41965039) supplemented with 10% FBS (Thermo Fisher Scientific), 1% penicillin–streptomycin (Thermo Fisher Scientific, cat. no.: 15070063) and 1% MEM Non-Essential Amino Acids Solution (Thermo Fisher Scientific, cat. no.: 11140035). Cell cultures were grown in vitro at 37 °C, 95% air and 5% CO2 atmosphere.
as §1

[4] = tested on: c-Met; assay: c-Met phosphorylation in EBC-1 cells by western blot; format: cell-based; conditions: 6 h
Procedure: To analyze the effect of the compounds on c-Met phosphorylation, EBC-1 cells were seeded in six well plates and grown to 90% confluence. […] Cells were incubated with the compounds for 6 h at 37 °C in a CO2 incubator. After the incubation, western blot analysis was performed. To investigate GnRH-R protein level, cells were seeded in six well plates and grown to 90% confluence, then western blot analysis was applied.
Bands were visualized via Enhanced Chemiluminescence detection system (Western Lightning ECL Pro, PerkinElmer, Waltham, MA, USA, cat. no.: NEL122001EA).

[5] = molecular target: T1, prostate cancer GnRHR (Homo sapiens, UniProt P30968); assay: Radioligand competition assay, [125I]-[D-Trp6]-GnRH-I displacement, human prostate cancer membranes; conditions: inhibition of [125I]-[D-Trp6]-GnRH-I binding to membranes
T1 construct: the human prostate cancer specimen was obtained from a patient at the time of initial surgical treatment; from tissue; host or cells: human prostate cancer surgical specimen, membranes
T1 sequence (P30968 1-328): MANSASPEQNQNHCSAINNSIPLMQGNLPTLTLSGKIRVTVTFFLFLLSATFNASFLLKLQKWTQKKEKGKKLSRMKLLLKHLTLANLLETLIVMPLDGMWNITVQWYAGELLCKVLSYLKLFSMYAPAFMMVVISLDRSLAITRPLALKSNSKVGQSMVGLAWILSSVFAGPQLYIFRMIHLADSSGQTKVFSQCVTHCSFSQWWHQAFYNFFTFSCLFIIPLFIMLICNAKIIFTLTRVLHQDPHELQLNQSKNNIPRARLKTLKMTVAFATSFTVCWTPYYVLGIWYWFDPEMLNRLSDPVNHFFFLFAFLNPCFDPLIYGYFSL
Procedure: (§2) The collection and use of the tissue samples for our studies were approved by the local Institutional Ethics Committee. Normal human pituitary (anterior lobe) tissue was collected at autopsy and the human prostate cancer specimen was obtained from a patient at the time of initial surgical treatment. The ligand competition assay was performed as described previously.

[6] = molecular target: T2, recombinant c-Met kinase (Homo sapiens, UniProt P08581); assay: In vitro inhibition of recombinant c-Met kinase (ADP-Glo); format: biochemical; conditions: recombinant kinase assay, ATP 3.1 µM
T2 construct: purchased ProQinase 0171-0000-1
T2 sequence (P08581 25-1390): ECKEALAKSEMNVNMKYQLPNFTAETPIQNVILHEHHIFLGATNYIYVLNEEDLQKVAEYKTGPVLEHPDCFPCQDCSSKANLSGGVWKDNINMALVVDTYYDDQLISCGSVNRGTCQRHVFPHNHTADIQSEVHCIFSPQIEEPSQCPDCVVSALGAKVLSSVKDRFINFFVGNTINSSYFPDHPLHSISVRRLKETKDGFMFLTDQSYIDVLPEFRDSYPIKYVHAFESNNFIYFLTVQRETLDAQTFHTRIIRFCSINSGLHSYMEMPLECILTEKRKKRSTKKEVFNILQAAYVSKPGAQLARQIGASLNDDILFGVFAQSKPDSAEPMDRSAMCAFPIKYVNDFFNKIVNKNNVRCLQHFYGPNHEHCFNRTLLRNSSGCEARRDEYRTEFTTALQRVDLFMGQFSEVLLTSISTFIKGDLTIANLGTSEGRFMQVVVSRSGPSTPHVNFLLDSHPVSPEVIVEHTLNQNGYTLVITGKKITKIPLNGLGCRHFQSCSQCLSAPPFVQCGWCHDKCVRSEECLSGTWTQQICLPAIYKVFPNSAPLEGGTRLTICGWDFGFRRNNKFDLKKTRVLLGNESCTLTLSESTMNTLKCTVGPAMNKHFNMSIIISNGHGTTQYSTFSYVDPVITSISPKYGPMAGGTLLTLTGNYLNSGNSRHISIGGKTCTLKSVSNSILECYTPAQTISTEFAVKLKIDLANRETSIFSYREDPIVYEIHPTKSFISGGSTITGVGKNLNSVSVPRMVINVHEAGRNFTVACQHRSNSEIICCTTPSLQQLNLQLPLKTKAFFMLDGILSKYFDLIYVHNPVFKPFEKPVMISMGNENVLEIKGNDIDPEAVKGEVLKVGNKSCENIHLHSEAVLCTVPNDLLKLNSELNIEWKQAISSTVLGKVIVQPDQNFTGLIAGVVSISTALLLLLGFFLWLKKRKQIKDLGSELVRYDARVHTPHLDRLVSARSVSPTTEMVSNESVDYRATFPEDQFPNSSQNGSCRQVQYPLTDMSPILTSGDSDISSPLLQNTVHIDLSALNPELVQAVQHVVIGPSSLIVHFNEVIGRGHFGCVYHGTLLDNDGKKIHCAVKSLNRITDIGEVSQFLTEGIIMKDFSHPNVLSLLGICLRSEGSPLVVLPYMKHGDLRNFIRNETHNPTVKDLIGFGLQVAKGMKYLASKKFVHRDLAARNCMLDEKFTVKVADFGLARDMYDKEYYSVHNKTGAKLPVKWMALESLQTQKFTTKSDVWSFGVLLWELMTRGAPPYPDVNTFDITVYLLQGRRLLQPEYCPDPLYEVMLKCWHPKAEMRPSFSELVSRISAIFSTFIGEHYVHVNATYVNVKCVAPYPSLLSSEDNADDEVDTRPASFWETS
Procedure: Reaction buffer was prepared according to ProQinase’s recommendation [60 mM HEPES, 3 mM MgCl2, 3 mM MnCl2, 3 µM Na3VO4, 1.2 mM DTT (dithiothreitol), and 50 µg/mL PEG20,000, (reagents were obtained from Merck Millipore)]. Enzyme activity was assayed in 384 well, low-volume white microtiter plates (Corning®, Merck Millipore, cat. no.: CLS4513-50EA). Compounds were preincubated with c-Met kinase for 30 min at room temperature and reactions were started by adding the substrate–ATP mixture. Reaction time was 60 min at room temperature. Enzyme reaction was stopped using ADP-Glo™ Kinase Assay (Promega, cat. no.: V6930) according to the manufacturer’s instructions (40 min incubation with ADP-Glo™ Reagent, 30 min incubation with Kinase detection reagent at 25 °C). All measurements were performed using a Synergy 2 Multi-Mode Reader (BioTek, Winooski, VT, USA). Raw enzyme activity values were converted to relative activity data using positive and negative controls.

[7] = molecular target: T3, human pituitary GnRHR (Homo sapiens, UniProt P30968); assay: Radioligand competition assay, [125I]-[D-Trp6]-GnRH-I displacement, human pituitary membranes; conditions: inhibition of [125I]-[D-Trp6]-GnRH-I binding to membranes
T3 construct: Normal human pituitary (anterior lobe) tissue was collected at autopsy; from tissue; host or cells: normal human pituitary (anterior lobe), autopsy tissue, membranes
T3 sequence (P30968 1-328): T1 sequence (P30968 1-328)
Procedure: as §2

[8] = tested on: EBC-1 cells; assay: Galectin puncta assay for lysosomal membrane permeabilization; format: cell-based; conditions: 8 h
Procedure: EBC-1 cells were seeded on eight well Ibidi® μ-Slide microscopic slides (2 × 10^4 cells/well) and allowed to adhere for 48 h. […] Untreated (0.2% DMSO in EMEM) cells were used as a negative control. Cells were incubated with the compounds for 8 h at 37 °C in a CO2 incubator. Cells were fixed with 4% paraformaldehyde for 10 min and washed twice with PBS (Lonza). Cells were permeabilized with 0.1% (v/v) Triton X-100 PBS solution for 10 min. After blocking (5% v/v BSA in PBS), cells were incubated with anti-galectin 3 (Merck, cat. no.: SAB4501746, dilution: 1:100) and anti-galectin-1 (Santa Cruz Biotechnology, cat. no.: sc-166618, dilution: 1:100) primary antibodies overnight at 25 °C, followed by Alexa-Fluor-488-conjugated (Jackson ImmunoResearch., cat. no.: 111-545-003, dilution: 1:500) and Alexa-Fluor-594-conjugated (Jackson ImmunoResearch, cat. no.: 115-585-003, dilution: 1:250) secondary antibodies for 1 h at 25 °C. DRAQ5 (10 µM) was added to the cells for 15 min. Cells were washed three times with PBS and a few drops of mounting media (Merck Millipore) were added. Images of cells were acquired with a confocal laser microscope (Zeiss Confocal LSM 710). [Objective: Plan-Apochromat 63x/1.40 Oil DIC M27. Pinhole: 1.01 AU. Laser wavelength: 488 nm, 543 nm and 633 nm. Detection wavelength: 504–539 nm; 602–651 nm; 694–758 nm)].

[9] = pH-dependent artificial membrane permeability assay (PAMPA); format: in vitro ADME
Procedure: An artificial-membrane-based system (BD Gentest™ Pre-Coated PAMPA plate, Corning, cat. no.: 353015) was used to determine the pH-dependent membrane permeability of the compounds. In this method, the protocol provided by the manufacturer was followed with minor modifications. Four different pH values were applied per compound. […] Stock solutions of compounds in DMSO were diluted to 100 µM in each PBS. PBS solutions were loaded into the donor wells, but the acceptor wells were filled with physiological PBS (pH = 7.4). The system was gently shaken (BioSan Thermo-Shaker PST-60HL) for 5 h at 25 °C. […] Calculation formula and the calculated data are available in the Supplementary Information, Section S4. page 11: S4. PAMPA Calculation formula: −ln(1 − CaCe) Pe = 1 1 A ∗ (Vd + Va) ∗ t Ce = (Cd ∗ Vd + Ca∗ Va)/(Vd + Va) R = 1 − Cd ∗ Vd + Ca∗ Va C0 ∗ Vd Pe = permeability (cm/s) R = mass retention (percentage loss of compound due to non-specific binding to the plastic surfaces during the permeation assay) A = membrane area (cm2) c0 = initial donor concentration ca = final acceptor concentration cd = final donor concentration ce = equilibrium concentration t = incubation time (sec) Va = acceptor volume (mL) Vd = donor volume (mL)

## CC(C)C[C@H](NC(=O)[C@@H](CCCCN)NC(=O)[C@H](Cc1ccc(O)cc1)NC(=O)[C@H](CO)NC(=O)[C@H](Cc1c[nH]c2ccccc12)NC(=O)[C@H](Cc1cnc[nH]1)NC(=O)[C@@H]1CCC(=O)N1)C(=O)N[C@@H](CCCNC(=N)N)C(=O)N1CCC[C@H]1C(=O)NCC(N)=O [[D-Lys^6]–GnRH-I, reference compound]
[1]
  stability in cell culture medium: stable

## C[C@@H](Oc1cc(-c2cnn(C3CCNCC3)c2)cnc1N)c1c(Cl)ccc(F)c1Cl [crizotinib*]
[2]; Homo sapiens, EBC-1
  IC50: 28 nM
[3]; Homo sapiens, Skin fibroblast
  IC50: 2600 nM

## CC(C)C[C@H](NC(=O)[C@@H](CCCCNC(=O)CCCC(=O)OCCN1CCC(n2cc(-c3cnc(N)c(OC(C)c4c(Cl)ccc(F)c4Cl)c3)cn2)CC1)NC(=O)[C@H](Cc1ccc(O)cc1)NC(=O)[C@H](CO)NC(=O)[C@H](Cc1c[nH]c2ccccc12)NC(=O)[C@H](Cc1c[nH]cn1)NC(=O)[C@@H]1CCC(=O)N1)C(=O)N[C@@H](CCCNC(=N)N)C(=O)N1CCC[C@H]1C(=O)NCC(N)=O (stereo partly drawn) [[D-Lys^6(MJ55*)]–GnRH-I]
[4]; 100 nM
  inhibition of c-Met phosphorylation in EBC-1 cells: blocked c-Met phosphorylation
[5]
  IC50: 29.7 ± 3.1 nM
[2]
  IC50: 90 nM
[1]; half-life of the ester bond / conjugate in EMEM
  half-life: ~480 min
[3]
  IC50: 3000 nM
[6]
  IC50: ~147 nM
[7]
  IC50: 21.7 ± 1.4 nM

## CC(C)C[C@H](NC(=O)[C@@H](CCCCNC(=O)CCCC(=O)N1CCC(n2cc(-c3cnc(N)c(OC(C)c4c(Cl)ccc(F)c4Cl)c3)cn2)CC1)NC(=O)[C@H](Cc1ccc(O)cc1)NC(=O)[C@H](CO)NC(=O)[C@H](Cc1c[nH]c2ccccc12)NC(=O)[C@H](Cc1c[nH]cn1)NC(=O)[C@@H]1CCC(=O)N1)C(=O)N[C@@H](CCCNC(=N)N)C(=O)N1CCC[C@H]1C(=O)NCC(N)=O (mixture of isomers) [[D-Lys^6(crizotinib*)]–GnRH-I]
[4]; 100 nM
  inhibition of c-Met phosphorylation in EBC-1 cells: no significant inhibitory effect
[4]; 1 µM
  inhibition of c-Met phosphorylation in EBC-1 cells: moderate
[4]; 10 µM
  inhibition of c-Met phosphorylation in EBC-1 cells: abolished
[5]
  IC50: 39.5 ± 1.7 nM
[2]; highest 10 µM concentration
  viability inhibition effect on EBC-1 cells: only a moderate effect
[2]; submicromolar range
  viability inhibition effect on EBC-1 cells: did not show any significant effect
[8]; 0.1 µM
  galectin puncta formation: negligable
[8]; 1 µM
  galectin puncta formation: clearly detectable
[8]; 10 µM and 100 µM
  galectin puncta formation: more and more significant
[9]; PAMPA, pH 4.8
  PAMPA membrane permeability: not to be membrane-permeable
[6]
  IC50: 163 nM
[7]
  IC50: 34.6 ± 4.2 nM

## Cn1c(=O)c2c(ncn2C)n(C)c1=O [caffeine, reference compound]
[9]; PAMPA
  PAMPA permeability over the investigated pH range: remained constant

## CC(Oc1cc(-c2cnn(C3CCN(CCO)CC3)c2)cnc1N)c1c(Cl)ccc(F)c1Cl (centres unmarked) [MJ55*]
[4]; 100 nM
  inhibition of c-Met phosphorylation in EBC-1 cells: completely inhibited
[2]; Homo sapiens, EBC-1
  IC50: 23 nM
[1]
  stability in cell culture medium: stable
[3]; Homo sapiens, Skin fibroblast
  IC50: 2600 nM
[9]; early endosome-/lysosome-like pH (pH = 6.0 and 4.8)
  PAMPA permeability: near zero
[6]
  IC50: 39 nM

From publication PMC6888004 (International Journal of Molecular Sciences, 2019)
